Test results: patent publication US3951955A, “Penicillins substituted with heterocyclic groups” (Sumitomo Chemical Company, Limited, priority 1970, dated 1976)
≈ marks a conversion by molar mass, not a printed value.

Tested on: Proteus miravilis 2425
Assay: minimal inhibitory concentration, agar dilution method (in vitro)
Format: cell-based
From the text: (§1) When determined according to the agar dilution method, the penicillins [I] afford the minimal inhibitory concentrations as shown in the following Table 1: […]

Compound | MIC
Cc1ccnc2c(O)c(C(=O)NC(C(=O)NC3C(=O)N4C3SC(C)(C)C4C(=O)O)c3ccccc3)cnc12 (stereo not drawn) [Example 34] | 3.13 µg/mL (≈ 5.84 µM)
CNc1ccc2ncc(C(=O)NC(C(=O)NC3C(=O)N4C3SC(C)(C)C4C(=O)O)c3ccccc3)c(O)c2n1 (stereo not drawn) [Example 35] | 6.25 µg/mL (≈ 11.4 µM)
CCCCNc1ccc2ncc(C(=O)NC(C(=O)NC3C(=O)N4C3SC(C)(C)C4C(=O)O)c3ccccc3)c(O)c2n1 (stereo not drawn) [Example 36] | 3.13 µg/mL (≈ 5.28 µM)
CCN(CC)c1ccc2ncc(C(=O)NC(C(=O)NC3C(=O)N4C3SC(C)(C)C4C(=O)O)c3ccccc3)c(O)c2n1 (stereo not drawn) [Example 37] | 1.56 µg/mL (≈ 2.63 µM)
CN(C)c1ccc2ncc(C(=O)NC(C(=O)NC3C(=O)N4C3SC(C)(C)C4C(=O)O)c3cccs3)c(O)c2n1 (stereo not drawn) [Example 38] | 1.56 µg/mL (≈ 2.73 µM)
CC1(C)SC2C(NC(=O)C(NC(=O)c3cnc4cccnc4c3O)c3cccs3)C(=O)N2C1C(=O)O (stereo not drawn) [Example 39] | 3.13 µg/mL (≈ 5.93 µM)
CC1(C)SC2C(NC(=O)C(NC(=O)c3cnc4ccc(N)nc4c3O)c3ccccc3)C(=O)N2C1C(=O)O (stereo not drawn) [Example 40] | 1.56 µg/mL (≈ 2.91 µM)
CCNc1ccc2ncc(C(=O)NC(C(=O)NC3C(=O)N4C3SC(C)(C)C4C(=O)O)c3ccccc3)c(O)c2n1 (stereo not drawn) [Example 41] | 6.25 µg/mL (≈ 11.1 µM)
CCCCN(CCCC)c1ccc2ncc(C(=O)NC(C(=O)NC3C(=O)N4C3SC(C)(C)C4C(=O)O)c3ccccc3)c(O)c2n1 (stereo not drawn) [Example 42] | 3.13 µg/mL (≈ 4.82 µM)

Tested on: Staphylococcus aureus 209P
Assay: as above
Format: cell-based
From the text: as §1

Compound | MIC
Cc1ccnc2c(O)c(C(=O)NC(C(=O)NC3C(=O)N4C3SC(C)(C)C4C(=O)O)c3ccccc3)cnc12 (stereo not drawn) [Example 34] | 1.56 µg/mL (≈ 2.91 µM)
CNc1ccc2ncc(C(=O)NC(C(=O)NC3C(=O)N4C3SC(C)(C)C4C(=O)O)c3ccccc3)c(O)c2n1 (stereo not drawn) [Example 35] | 0.78 µg/mL (≈ 1.42 µM)
CCCCNc1ccc2ncc(C(=O)NC(C(=O)NC3C(=O)N4C3SC(C)(C)C4C(=O)O)c3ccccc3)c(O)c2n1 (stereo not drawn) [Example 36] | 1.56 µg/mL (≈ 2.63 µM)
CCN(CC)c1ccc2ncc(C(=O)NC(C(=O)NC3C(=O)N4C3SC(C)(C)C4C(=O)O)c3ccccc3)c(O)c2n1 (stereo not drawn) [Example 37] | 0.78 µg/mL (≈ 1.32 µM)
CN(C)c1ccc2ncc(C(=O)NC(C(=O)NC3C(=O)N4C3SC(C)(C)C4C(=O)O)c3cccs3)c(O)c2n1 (stereo not drawn) [Example 38] | 0.78 µg/mL (≈ 1.37 µM)
CC1(C)SC2C(NC(=O)C(NC(=O)c3cnc4cccnc4c3O)c3cccs3)C(=O)N2C1C(=O)O (stereo not drawn) [Example 39] | 0.78 µg/mL (≈ 1.48 µM)
CC1(C)SC2C(NC(=O)C(NC(=O)c3cnc4ccc(N)nc4c3O)c3ccccc3)C(=O)N2C1C(=O)O (stereo not drawn) [Example 40] | 0.78 µg/mL (≈ 1.45 µM)
CCNc1ccc2ncc(C(=O)NC(C(=O)NC3C(=O)N4C3SC(C)(C)C4C(=O)O)c3ccccc3)c(O)c2n1 (stereo not drawn) [Example 41] | 0.78 µg/mL (≈ 1.38 µM)
CCCCN(CCCC)c1ccc2ncc(C(=O)NC(C(=O)NC3C(=O)N4C3SC(C)(C)C4C(=O)O)c3ccccc3)c(O)c2n1 (stereo not drawn) [Example 42] | 1.56 µg/mL (≈ 2.4 µM)

Tested on: Escherichia coli NIHJ
Assay: as above
Format: cell-based
From the text: as §1

Compound | MIC
Cc1ccnc2c(O)c(C(=O)NC(C(=O)NC3C(=O)N4C3SC(C)(C)C4C(=O)O)c3ccccc3)cnc12 (stereo not drawn) [Example 34] | 3.13 µg/mL (≈ 5.84 µM)
CNc1ccc2ncc(C(=O)NC(C(=O)NC3C(=O)N4C3SC(C)(C)C4C(=O)O)c3ccccc3)c(O)c2n1 (stereo not drawn) [Example 35] | 1.56 µg/mL (≈ 2.83 µM)
CCCCNc1ccc2ncc(C(=O)NC(C(=O)NC3C(=O)N4C3SC(C)(C)C4C(=O)O)c3ccccc3)c(O)c2n1 (stereo not drawn) [Example 36] | 1.56 µg/mL (≈ 2.63 µM)
CCN(CC)c1ccc2ncc(C(=O)NC(C(=O)NC3C(=O)N4C3SC(C)(C)C4C(=O)O)c3ccccc3)c(O)c2n1 (stereo not drawn) [Example 37] | 0.78 µg/mL (≈ 1.32 µM)
CN(C)c1ccc2ncc(C(=O)NC(C(=O)NC3C(=O)N4C3SC(C)(C)C4C(=O)O)c3cccs3)c(O)c2n1 (stereo not drawn) [Example 38] | 1.56 µg/mL (≈ 2.73 µM)
CC1(C)SC2C(NC(=O)C(NC(=O)c3cnc4cccnc4c3O)c3cccs3)C(=O)N2C1C(=O)O (stereo not drawn) [Example 39] | 1.56 µg/mL (≈ 2.96 µM)
CC1(C)SC2C(NC(=O)C(NC(=O)c3cnc4ccc(N)nc4c3O)c3ccccc3)C(=O)N2C1C(=O)O (stereo not drawn) [Example 40] | 1.56 µg/mL (≈ 2.91 µM)
CCNc1ccc2ncc(C(=O)NC(C(=O)NC3C(=O)N4C3SC(C)(C)C4C(=O)O)c3ccccc3)c(O)c2n1 (stereo not drawn) [Example 41] | 3.13 µg/mL (≈ 5.54 µM)
CCCCN(CCCC)c1ccc2ncc(C(=O)NC(C(=O)NC3C(=O)N4C3SC(C)(C)C4C(=O)O)c3ccccc3)c(O)c2n1 (stereo not drawn) [Example 42] | 3.13 µg/mL (≈ 4.82 µM)

Tested on: Pseudomonas aeruginosa 104
Assay: as above
Format: cell-based
From the text: as §1

Compound | MIC
Cc1ccnc2c(O)c(C(=O)NC(C(=O)NC3C(=O)N4C3SC(C)(C)C4C(=O)O)c3ccccc3)cnc12 (stereo not drawn) [Example 34] | 3.13 µg/mL (≈ 5.84 µM)
CNc1ccc2ncc(C(=O)NC(C(=O)NC3C(=O)N4C3SC(C)(C)C4C(=O)O)c3ccccc3)c(O)c2n1 (stereo not drawn) [Example 35] | 3.13 µg/mL (≈ 5.68 µM)
CCCCNc1ccc2ncc(C(=O)NC(C(=O)NC3C(=O)N4C3SC(C)(C)C4C(=O)O)c3ccccc3)c(O)c2n1 (stereo not drawn) [Example 36] | 3.13 µg/mL (≈ 5.28 µM)
CCN(CC)c1ccc2ncc(C(=O)NC(C(=O)NC3C(=O)N4C3SC(C)(C)C4C(=O)O)c3ccccc3)c(O)c2n1 (stereo not drawn) [Example 37] | 3.13 µg/mL (≈ 5.28 µM)
CN(C)c1ccc2ncc(C(=O)NC(C(=O)NC3C(=O)N4C3SC(C)(C)C4C(=O)O)c3cccs3)c(O)c2n1 (stereo not drawn) [Example 38] | 6.25 µg/mL (≈ 11 µM)
CC1(C)SC2C(NC(=O)C(NC(=O)c3cnc4cccnc4c3O)c3cccs3)C(=O)N2C1C(=O)O (stereo not drawn) [Example 39] | 6.25 µg/mL (≈ 11.8 µM)
CC1(C)SC2C(NC(=O)C(NC(=O)c3cnc4ccc(N)nc4c3O)c3ccccc3)C(=O)N2C1C(=O)O (stereo not drawn) [Example 40] | 3.13 µg/mL (≈ 5.83 µM)
CCNc1ccc2ncc(C(=O)NC(C(=O)NC3C(=O)N4C3SC(C)(C)C4C(=O)O)c3ccccc3)c(O)c2n1 (stereo not drawn) [Example 41] | 6.25 µg/mL (≈ 11.1 µM)
CCCCN(CCCC)c1ccc2ncc(C(=O)NC(C(=O)NC3C(=O)N4C3SC(C)(C)C4C(=O)O)c3ccccc3)c(O)c2n1 (stereo not drawn) [Example 42] | 3.13 µg/mL (≈ 4.82 µM)

Tested on: Klebsiella pneumoniae 602
Assay: as above
Format: cell-based
From the text: as §1

Compound | MIC
Cc1ccnc2c(O)c(C(=O)NC(C(=O)NC3C(=O)N4C3SC(C)(C)C4C(=O)O)c3ccccc3)cnc12 (stereo not drawn) [Example 34] | 6.25 µg/mL (≈ 11.7 µM)
CNc1ccc2ncc(C(=O)NC(C(=O)NC3C(=O)N4C3SC(C)(C)C4C(=O)O)c3ccccc3)c(O)c2n1 (stereo not drawn) [Example 35] | 3.13 µg/mL (≈ 5.68 µM)
CCCCNc1ccc2ncc(C(=O)NC(C(=O)NC3C(=O)N4C3SC(C)(C)C4C(=O)O)c3ccccc3)c(O)c2n1 (stereo not drawn) [Example 36] | 3.13 µg/mL (≈ 5.28 µM)
CCN(CC)c1ccc2ncc(C(=O)NC(C(=O)NC3C(=O)N4C3SC(C)(C)C4C(=O)O)c3ccccc3)c(O)c2n1 (stereo not drawn) [Example 37] | 0.78 µg/mL (≈ 1.32 µM)
CN(C)c1ccc2ncc(C(=O)NC(C(=O)NC3C(=O)N4C3SC(C)(C)C4C(=O)O)c3cccs3)c(O)c2n1 (stereo not drawn) [Example 38] | 1.56 µg/mL (≈ 2.73 µM)
CC1(C)SC2C(NC(=O)C(NC(=O)c3cnc4cccnc4c3O)c3cccs3)C(=O)N2C1C(=O)O (stereo not drawn) [Example 39] | 3.13 µg/mL (≈ 5.93 µM)
CC1(C)SC2C(NC(=O)C(NC(=O)c3cnc4ccc(N)nc4c3O)c3ccccc3)C(=O)N2C1C(=O)O (stereo not drawn) [Example 40] | 1.56 µg/mL (≈ 2.91 µM)
CCNc1ccc2ncc(C(=O)NC(C(=O)NC3C(=O)N4C3SC(C)(C)C4C(=O)O)c3ccccc3)c(O)c2n1 (stereo not drawn) [Example 41] | 6.25 µg/mL (≈ 11.1 µM)
CCCCN(CCCC)c1ccc2ncc(C(=O)NC(C(=O)NC3C(=O)N4C3SC(C)(C)C4C(=O)O)c3ccccc3)c(O)c2n1 (stereo not drawn) [Example 42] | 3.13 µg/mL (≈ 4.82 µM)
